8 compounds from ChEMBL document CHEMBL1144161, “ortho-dihydroxyisoflavone derivatives from aged Doenjang (Korean fermented soypaste) and its radical scavenging activity” (Bioorg Med Chem Lett, 2008) can be followed below.

Assay [1] relates to Radical scavenging activity. Briefly: Antioxidant activity assessed as DPPH radical scavenging activity after 30 mins. Type of assay: functional. (DPPH is a stable violet radical that fades when it is reduced.)
Assay [2] concerns the target T1, Xanthine dehydrogenase/oxidase (Homo sapiens, UniProt P47989). Briefly: Inhibition of xanthine oxidase assessed as decrease of uric acid generation.
Assay [3] deals with T1, Xanthine dehydrogenase/oxidase. Briefly: Inhibition of xanthine oxidase assessed as decrease of superoxide generation.

T1 sequence (P47989 whole entry): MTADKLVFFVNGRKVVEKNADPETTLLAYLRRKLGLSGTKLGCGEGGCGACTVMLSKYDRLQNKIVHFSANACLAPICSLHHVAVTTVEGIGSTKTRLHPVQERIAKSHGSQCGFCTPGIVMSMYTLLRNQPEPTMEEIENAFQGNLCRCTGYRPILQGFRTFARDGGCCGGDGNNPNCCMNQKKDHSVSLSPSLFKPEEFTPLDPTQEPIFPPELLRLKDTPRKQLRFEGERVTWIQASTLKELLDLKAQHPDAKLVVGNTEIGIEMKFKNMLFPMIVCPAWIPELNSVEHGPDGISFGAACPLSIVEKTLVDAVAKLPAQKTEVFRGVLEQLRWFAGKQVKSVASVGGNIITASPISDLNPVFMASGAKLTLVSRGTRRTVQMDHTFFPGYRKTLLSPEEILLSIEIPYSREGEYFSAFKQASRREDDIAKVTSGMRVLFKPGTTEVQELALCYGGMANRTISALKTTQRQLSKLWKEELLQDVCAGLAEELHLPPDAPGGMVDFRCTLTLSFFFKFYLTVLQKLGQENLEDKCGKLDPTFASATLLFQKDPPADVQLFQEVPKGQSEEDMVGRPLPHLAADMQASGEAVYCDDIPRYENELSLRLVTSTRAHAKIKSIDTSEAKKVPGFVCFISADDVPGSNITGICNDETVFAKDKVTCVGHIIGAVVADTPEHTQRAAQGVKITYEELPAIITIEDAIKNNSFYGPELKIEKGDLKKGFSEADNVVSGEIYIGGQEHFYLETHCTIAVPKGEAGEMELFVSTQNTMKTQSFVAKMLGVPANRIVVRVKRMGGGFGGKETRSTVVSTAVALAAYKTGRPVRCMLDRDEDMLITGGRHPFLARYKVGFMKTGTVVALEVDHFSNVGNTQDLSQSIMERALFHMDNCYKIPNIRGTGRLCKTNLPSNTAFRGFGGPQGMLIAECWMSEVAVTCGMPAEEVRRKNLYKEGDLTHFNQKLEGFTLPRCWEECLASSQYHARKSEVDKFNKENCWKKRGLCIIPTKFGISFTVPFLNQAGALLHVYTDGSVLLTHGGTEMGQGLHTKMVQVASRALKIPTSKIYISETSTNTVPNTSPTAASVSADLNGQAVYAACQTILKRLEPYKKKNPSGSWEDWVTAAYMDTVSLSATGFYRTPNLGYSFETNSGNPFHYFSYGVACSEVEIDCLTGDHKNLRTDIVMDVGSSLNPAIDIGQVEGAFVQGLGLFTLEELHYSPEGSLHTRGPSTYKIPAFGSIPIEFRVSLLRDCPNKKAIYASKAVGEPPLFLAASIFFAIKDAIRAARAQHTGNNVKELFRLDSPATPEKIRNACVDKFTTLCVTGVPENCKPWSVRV

In general, IC50 refers to the concentration at which inhibition is half-maximal. As to `O=c1c(-c2ccc(O)c(O)c2)coc2cc(O)ccc12`, the figures for the IC50 in assay [1], in assay [2] and in assay [3] were 28.7 µM, greater than 1000 µM and 16.8 µM, respectively.
The like results for `O=c1c(-c2ccc(O)cc2)coc2cc(O)c(O)cc12` were, in that order, 32.6 µM, greater than 1000 µM and greater than 1000 µM.
As for `O=c1c(-c2ccc(O)cc2)coc2c(O)c(O)ccc12`, the IC50 in assay [1] was 21.5 µM; in assay [2], greater than 1000 µM; in assay [3], 6.6 µM.
With `O=C1O[C@H]([C@@H](O)CO)C(O)=C1O` [ASCORBIC ACID], in assay [1], the IC50 amounted to 52.3 µM.
Consider `O=c1c(-c2ccc(O)cc2)coc2cc(O)ccc12` [DAIDZEIN], for which the IC50 was greater than 1000 µM in assay [2] and 430 µM in assay [3].
The like results for `O=c1c(-c2ccc(O)cc2)coc2cc(O)cc(O)c12` [GENISTEIN] were, in that order, greater than 1000 µM and 232 µM.
For `COc1cc2c(=O)c(-c3ccc(O)cc3)coc2cc1O` [GLYCITEIN], in that order: greater than 1000 µM and 683 µM.
As to `Cc1c(C)c2c(c(C)c1O)CCC(C)(C(=O)O)O2` (configuration not stated) [TROLOX], in assay [1], the IC50 was determined as 48.9 µM.
